Assay results as given in article PMC3594701 (Journal of acquired immune deficiency syndromes (1999), 2011).
Marks after values point to notes of the source that are not given here.

Columns and labels:
[1] = Steady-state plasma pharmacokinetics; format: in vivo, human; conditions: for Cmax: GM Cmax
[2] = Steady-state intracellular; format: in vivo, human; conditions: IC (PBMC); for GM AUC: AUC0–12; for Cmax: GM Cmax
[3] = 10 HIV-infected individuals, 6 also on twice-daily darunavir/ritonavir; cited from earlier work
HIV = conditions: 800 mg once daily versus approved 400 mg twice-daily dose; cited from earlier work
[4] = IC accumulation: ratio of IC drug to drug in plasma; conditions: human, GM IC to Plasma Ratio
[5] = group 1, period 2 (day 35): raltegravir 400 mg twice daily + darunavir/ritonavir 800/100 mg once daily
[6] = group 1, period 2 (day 35): raltegravir 400 mg twice daily + darunavir/ritonavir 800/100 mg once daily, listed as raltegravir
[7] = group 2, period 2 (day 35): raltegravir 800 mg once daily + darunavir/ritonavir 800/100 mg once daily

GM Ctrough [1, 5]: 20 ng/mL
GM Ctrough [1, 6]: 20 (17–25) ng/mL
GM Ctrough [1, 7]: 11 ^* ng/mL
Cmax ([1]; human, group 1, period 2 (day 35): raltegravir 400 mg twice daily + darunavir/ritonavir 800/100 mg once daily): 438 ng/mL
concentration at 12 h ([1]; human, GM Ctrough, group 1, period 1 (day 21): raltegravir 400 mg twice daily, without darunavir/ritonavir): 23 ng/mL
concentration at 12 h ([1]; human, GM Ctrough, group 2, period 1 (day 21): raltegravir 400 mg twice daily, without darunavir/ritonavir): 28 ng/mL
Cmax ([1]; human, oral, 400 mg, group 1, period 1 (day 21): raltegravir 400 mg twice daily, without darunavir/ritonavir): 533 ng/mL
Cmax ([1]; human, oral, 400 mg, group 2, period 1 (day 21): raltegravir 400 mg twice daily, without darunavir/ritonavir): 361 ng/mL
Cmax ([1]; human, oral, group 2, period 2 (day 35): raltegravir 800 mg once daily + darunavir/ritonavir 800/100 mg once daily): 556 ng/mL
concentration at 12 h ([1]; human, oral, GM Ctrough, group 1, period 1 (day 21): raltegravir 400 mg twice daily, without darunavir/ritonavir): 23 ng/mL
concentration at 12 h ([1]; human, oral, GM Ctrough, group 2, period 1 (day 21): raltegravir 400 mg twice daily, without darunavir/ritonavir): 28 ng/mL
concentration at 24 h ([1]; human, oral, GM Ctrough, group 2, period 2 (day 35): raltegravir 800 mg once daily + darunavir/ritonavir 800/100 mg once daily): 11 ng/mL
GM AUC ([2]; group 1, period 1 (day 21): raltegravir 400 mg twice daily, without darunavir/ritonavir): 9010 ng/h/mL
GM AUC ([2]; group 1, period 1 (day 21): raltegravir 400 mg twice daily, without darunavir/ritonavir, listed as raltegravir): 9010 (7852–13,519) ng·h^−1·mL^−1
GM Ctrough [2, 5]: 105 ng/mL
GM Ctrough [2, 6]: 105 (51–295) ng/mL
GM AUC ([2]; group 2, period 1 (day 21): raltegravir 400 mg twice daily, without darunavir/ritonavir): 8780 ng/h/mL
GM AUC ([2]; group 2, period 1 (day 21): raltegravir 400 mg twice daily, without darunavir/ritonavir, listed as raltegravir): 8780 (7286–16,400) ng·h^−1·mL^−1
GM Ctrough [2, 7]: 22 ng/mL
Cmax ([2]; human, PBMC (intracellular), oral, 400 mg, group 2, period 1 (day 21): raltegravir 400 mg twice daily, without darunavir/ritonavir): 1870 ng/mL
Cmax ([2]; human, PBMC, 400 mg, group 1, period 1 (day 21): raltegravir 400 mg twice daily, without darunavir/ritonavir): 2310 ng/mL
concentration at 12 h ([2]; human, PBMC, GM Ctrough, group 1, period 1 (day 21): raltegravir 400 mg twice daily, without darunavir/ritonavir): 101 ng/mL
concentration at 12 h ([2]; human, PBMC, GM Ctrough, group 2, period 1 (day 21): raltegravir 400 mg twice daily, without darunavir/ritonavir): 115 ng/mL
Cmax ([2]; human, PBMC, oral, 400 mg, group 1, period 1 (day 21): raltegravir 400 mg twice daily, without darunavir/ritonavir): 2310 ng/mL
Cmax ([2]; human, PBMC, oral, group 1, period 2 (day 35): raltegravir 400 mg twice daily + darunavir/ritonavir 800/100 mg once daily): 2170 ng/mL
Cmax ([2]; human, PBMC, oral, group 2, period 2 (day 35): raltegravir 800 mg once daily + darunavir/ritonavir 800/100 mg once daily): 2820 ng/mL
concentration at 12 h ([2]; human, PBMC, oral, GM Ctrough, group 1, period 1 (day 21): raltegravir 400 mg twice daily, without darunavir/ritonavir): 101 ng/mL
concentration at 12 h ([2]; human, PBMC, oral, GM Ctrough, group 2, period 1 (day 21): raltegravir 400 mg twice daily, without darunavir/ritonavir): 115 ng/mL
concentration at 24 h ([2]; human, PBMC, oral, GM Ctrough, group 2, period 2 (day 35): raltegravir 800 mg once daily + darunavir/ritonavir 800/100 mg once daily): 22 ng/mL
Kp ([4]; PBMC (intracellular)/plasma, oral, 400 mg, AUC, group 1, period 1 (day 21): raltegravir 400 mg twice daily, without darunavir/ritonavir): 4.9
Kp ([4]; PBMC (intracellular)/plasma, oral, 400 mg, AUC, group 2, period 1 (day 21): raltegravir 400 mg twice daily, without darunavir/ritonavir): 5.6
Kp ([4]; PBMC (intracellular)/plasma, oral, 400 mg, Cmax, group 1, period 1 (day 21): raltegravir 400 mg twice daily, without darunavir/ritonavir): 4.6
Kp ([4]; PBMC (intracellular)/plasma, oral, 400 mg, Cmax, group 2, period 1 (day 21): raltegravir 400 mg twice daily, without darunavir/ritonavir): 5.5
Kp ([4]; PBMC (intracellular)/plasma, oral, 400 mg, Ctrough, group 1, period 1 (day 21): raltegravir 400 mg twice daily, without darunavir/ritonavir): 5.1
Kp ([4]; PBMC (intracellular)/plasma, oral, 400 mg, Ctrough, group 2, period 1 (day 21): raltegravir 400 mg twice daily, without darunavir/ritonavir): 4.6
Kp ([4]; intracellular (PBMC) / plasma, AUC (raltegravir), group 1, period 2 (day 35): raltegravir 400 mg twice daily + darunavir/ritonavir 800/100 mg once daily): 5.8
Kp ([4]; intracellular (PBMC) / plasma, AUC (raltegravir), group 2, period 2 (day 35): raltegravir 800 mg once daily + darunavir/ritonavir 800/100 mg once daily): 6
Kp ([4]; intracellular (PBMC) / plasma, oral, Cmax, group 1, period 2 (day 35): raltegravir 400 mg twice daily + darunavir/ritonavir 800/100 mg once daily): 5.6
Kp ([4]; intracellular (PBMC) / plasma, oral, Cmax, group 2, period 2 (day 35): raltegravir 800 mg once daily + darunavir/ritonavir 800/100 mg once daily): 6.8
Kp ([4]; intracellular (PBMC) / plasma, oral, Ctrough, group 1, period 2 (day 35): raltegravir 400 mg twice daily + darunavir/ritonavir 800/100 mg once daily): 4.5
Kp at 24 h ([4]; intracellular (PBMC) / plasma, oral, Ctrough, group 2, period 2 (day 35): raltegravir 800 mg once daily + darunavir/ritonavir 800/100 mg once daily): 2.4
Compound: Cc1nnc(C(=O)NC(C)(C)c2nc(C(=O)NCc3ccc(F)cc3)c(O)c(=O)n2C)o1 [Raltegravir, raltegravir]
decrease of plasma AUC [3]: 33%
virological response (HIV): did not show the same virological response
